Assay results taken from patent publication US20200181117A1, “SUBSTITUTED 3-HETEROARYLOXY-1H-PYRAZOLES AND SALTS THEREOF AND THEIR USE AS HERBICIDAL ACTIVE SUBSTANCES” (BAYER CROPSCIENCE AKTIENGESELLSCHAFT, priority 2017, published 2020).

Key:
Type in all cases: in vivo
Abutilon theophrasti [1] = test: Post-emergence herbicidal action; details: 1280 g/ha, rated visually after about 3 weeks vs untreated controls
Procedure, shortened: (§1)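 Visual rating against untreated plants, about 3 weeks post-treatment, on a 0-100% scale where 100% means plant death. Treatment: 1280 g/ha of WP/EC preparations with 0.5% additive in 600 l/ha water, sprayed on one-leaf-stage weeds grown in greenhouse sandy loam.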

Alopecurus myosuroides [2] = test: Post-emergence herbicidal action; details: 1280 g/ha, rated visually after about 3 weeks vs untreated controls
Procedure, shortened: as §1

Amaranthus retroflexus [3] = test: Post-emergence herbicidal action; details: 1280 g/ha, rated visually after about 3 weeks vs untreated controls
Procedure, shortened: as §1

Echinochloa crus-galli [4] = test: Post-emergence herbicidal action; details: 1280 g/ha, rated visually after about 3 weeks vs untreated controls
Procedure, shortened: as §1

Hordeum murinum [5] = test: Post-emergence herbicidal action; details: 1280 g/ha, rated visually after about 3 weeks vs untreated controls
Procedure, shortened: as §1

Matricaria inodora [6] = test: Post-emergence herbicidal action; details: 1280 g/ha, rated visually after about 3 weeks vs untreated controls
Procedure, shortened: as §1

Pharbitis purpurea [7] = test: Post-emergence herbicidal action; details: 1280 g/ha, rated visually after about 3 weeks vs untreated controls
Procedure, shortened: as §1

Polygonum convolvulus [8] = test: Post-emergence herbicidal action; details: 1280 g/ha, rated visually after about 3 weeks vs untreated controls
Procedure, shortened: as §1

Setaria viridis [9] = test: Post-emergence herbicidal action; details: 1280 g/ha, rated visually after about 3 weeks vs untreated controls
Procedure, shortened: as §1

Stellaria media [10] = test: Post-emergence herbicidal action; details: 1280 g/ha, rated visually after about 3 weeks vs untreated controls
Procedure, shortened: as §1

Viola tricolor [11] = test: Post-emergence herbicidal action; details: 1280 g/ha, rated visually after about 3 weeks vs untreated controls
Procedure, shortened: as §1

Abutilon theophrasti [12] = test: Pre-emergence herbicidal action; details: 1280 g/ha, scored visually after about 3 weeks vs untreated controls
Procedure, shortened: (§2)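 Seeds were sown in pots and covered with soil; compounds formulated as WP or EC were sprayed onto the soil surface as aqueous suspension or emulsion with 0.5% additive at 600 l/ha water, 1280 g/ha. Greenhouse growth; visual % activity versus untreated controls after about 3 weeks (100% = plants dead).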

Alopecurus myosuroides [13] = test: Pre-emergence herbicidal action; details: 1280 g/ha, scored visually after about 3 weeks vs untreated controls
Procedure, shortened: as §2

Amaranthus retroflexus [14] = test: Pre-emergence herbicidal action; details: 1280 g/ha, scored visually after about 3 weeks vs untreated controls
Procedure, shortened: as §2

Avena fatua = test: Pre-emergence herbicidal action; details: 1280 g/ha, scored visually after about 3 weeks vs untreated controls
Procedure, shortened: as §2

Echinochloa crus-galli [15] = test: Pre-emergence herbicidal action; details: 1280 g/ha, scored visually after about 3 weeks vs untreated controls
Procedure, shortened: as §2

Hordeum murinum [16] = test: Pre-emergence herbicidal action; details: 1280 g/ha, scored visually after about 3 weeks vs untreated controls
Procedure, shortened: as §2

Lolium rigidum [17] = test: Pre-emergence herbicidal action; details: 1280 g/ha, scored visually after about 3 weeks vs untreated controls
Procedure, shortened: as §2

Matricaria inodora [18] = test: Pre-emergence herbicidal action; details: 1280 g/ha, scored visually after about 3 weeks vs untreated controls
Procedure, shortened: as §2

Pharbitis purpurea [19] = test: Pre-emergence herbicidal action; details: 1280 g/ha, scored visually after about 3 weeks vs untreated controls
Procedure, shortened: as §2

Polygonum convolvulus [20] = test: Pre-emergence herbicidal action; details: 1280 g/ha, scored visually after about 3 weeks vs untreated controls
Procedure, shortened: as §2

Setaria viridis [21] = test: Pre-emergence herbicidal action; details: 1280 g/ha, scored visually after about 3 weeks vs untreated controls
Procedure, shortened: as §2

Stellaria media [22] = test: Pre-emergence herbicidal action; details: 1280 g/ha, scored visually after about 3 weeks vs untreated controls
Procedure, shortened: as §2

Viola tricolor [23] = test: Pre-emergence herbicidal action; details: 1280 g/ha, scored visually after about 3 weeks vs untreated controls
Procedure, shortened: as §2

Lolium rigidum [24] = test: Post-emergence herbicidal action; details: 1280 g/ha, rated visually after about 3 weeks vs untreated controls
Procedure, shortened: as §1

Veronica persica = test: Post-emergence herbicidal action; details: 1280 g/ha, rated visually after about 3 weeks vs untreated controls
Procedure, shortened: as §1

Row | Structure (SMILES) | herbicidal activity on Abutilon theophrasti (Abutilon theophrasti [1]) [%] | herbicidal activity on Alopecurus myosuroides (Alopecurus myosuroides [2]) [%] | herbicidal activity on Amaranthus retroflexus (Amaranthus retroflexus [3]) [%] | herbicidal activity on Echinochloa crus-galli (Echinochloa crus-galli [4]) [%] | herbicidal activity on Hordeum murinum (Hordeum murinum [5]) [%] | herbicidal activity on Matricaria inodora (Matricaria inodora [6]) [%] | herbicidal activity on Pharbitis purpurea (Pharbitis purpurea [7]) [%] | herbicidal activity on Polygonum convolvulus (Polygonum convolvulus [8]) [%] | herbicidal activity on Setaria viridis (Setaria viridis [9]) [%] | herbicidal activity on Stellaria media (Stellaria media [10]) [%] | herbicidal activity on Viola tricolor (Viola tricolor [11]) [%] | herbicidal activity on Abutilon theophrasti (Abutilon theophrasti [12]) [%] | herbicidal activity on Alopecurus myosuroides (Alopecurus myosuroides [13]) [%] | herbicidal activity on Amaranthus retroflexus (Amaranthus retroflexus [14]) [%] | herbicidal activity on Avena fatua (Avena fatua) [%] | herbicidal activity on Echinochloa crus-galli (Echinochloa crus-galli [15]) [%] | herbicidal activity on Hordeum murinum (Hordeum murinum [16]) [%] | herbicidal activity on Lolium rigidum (Lolium rigidum [17]) [%] | herbicidal activity on Matricaria inodora (Matricaria inodora [18]) [%] | herbicidal activity on Polygonum convolvulus (Polygonum convolvulus [20]) [%] | further results
1 | Cc1c(Sc2ccccc2)c(Oc2ncccn2)nn1C [Example I-126] | 100 | 100 | 100 | 100 | 80 | 80 | 100 | 100 | 100 | 100 | 100 | 100 | 100 | 100 | 100 | 100 | 100 | 100 | 100 | 100 | herbicidal activity on Pharbitis purpurea (Pharbitis purpurea [19]): 90%; herbicidal activity on Setaria viridis (Setaria viridis [21]): 100%; herbicidal activity on Stellaria media (Stellaria media [22]): 100%; herbicidal activity on Viola tricolor (Viola tricolor [23]): 100%
2 | COc1cnc(Oc2nn(C)c(C)c2Sc2ccccc2)nc1 [Example I-140] | 100 | 100 | 100 | 100 | 80 | 100 | 100 | 100 | 100 | 90 | 100 | 100 | 100 | 100 | 100 | 100 | 100 | 100 | 100 | 100 | herbicidal activity on Lolium rigidum (Lolium rigidum [24]): 80%; herbicidal activity on Veronica persica (Veronica persica): 100%; herbicidal activity on Setaria viridis (Setaria viridis [21]): 100%; herbicidal activity on Stellaria media (Stellaria media [22]): 100%; herbicidal activity on Viola tricolor (Viola tricolor [23]): 100%
